# Reference: patent publication US10988465B2, “CXCR4 inhibitors and uses thereof” (X4 Pharmaceuticals, Inc., priority 2016, dated 2021)
# Like-named read-outs stand apart in the source and are kept apart here.
# Assay: 7-day mouse toxicology study: toxicokinetics (plasma, brain, CSF), 30 mg/kg/day PO
# Type: in vivo, male C57BL/6 mice
# Details: for Cmax / Tmax / AUC(0-t) / AUC(0-inf) / half-life: male, C57BL/6, mouse, po
# Method: The PO dosing solutions were prepared in 50 mM citrate buffer (pH 4.0) at 3 mg/mL. The blood collection was performed as follows: the animal was anesthetized under isoflurane. Approximately 500 μL blood/time point was collected into K2EDTA tube via cardiac puncture for terminal bleeding. ˜200 μL blood samples were put on ice and centrifuged to obtain plasma sample (2000 g, 5 min under 4° C.) within 15 minutes of collection. ˜300 blood samples were used for hematology assay. The brain collection was performed as follow: a mid-line incision was made in the animal's scalp and skin retracted. The skull overlying the brain was removed. The whole brain was collected, rinsed with cold saline, dried on filtrate paper, weighted, and snap frozen by placing into dry ice. The brain sample was homogenized for 2 min with 3 volumes of PBS (pH 7.4) by Mini-bead-beater before sample extraction.
# An aliquot of 10 μL sample was added to 200 μL MeCN containing 10 ng/mL IS (Glipizide). The mixture was vortexed for 10 min and centrifuged at 6,000 rpm for 10 min. An aliquot of 1 μL constitution was injected for LC-MS/MS analysis.
# An aliquot of 3 μL sample was added to 70 μL MeCN containing 10 ng/mL IS (Glipizide). The mixture was vortexed for 2 min and centrifuged at 14,000 rpm for 5 min. An aliquot of 1 μL constitution was injected for LC-MS/MS analysis.
# The sample was homogenized with 3 volumes (v/w) of PBS. An aliquot of 10 μL sample was added to 200 μL MeCN containing 10 ng/mL IS (Glipizide). The mixture was vortexed for 10 min and centrifuged at 6,000 rpm for 10 min. An aliquot of 1 μL constitution was injected for LC-MS/MS analysis.
# The sample analysis was performed on LCMSMS-28 (Triple Quad 6500+) under the following conditions: positive ion, ESI, MRM detection using glipizide as internal standard. HPLC conditions: mobile phase A: H2O/0.025% FA with 1 mM NH4OAc, mobile phase B: MeOH/0.025% FA with 1 mM NH4OAc on Waters X-Bridge BEH C18 (2.1×50 mm, 2.5 μm) column at 60° C.
# [1] = CSF, 30 mg/kg, Day 1, CSF, 30 mg/kg PO
# [2] = CSF, 30 mg/kg, Day 7, CSF, 30 mg/kg PO
# [3] = brain, 30 mg/kg, Day 1, Brain, 30 mg/kg PO
# [4] = brain, 30 mg/kg, Day 7, Brain, 30 mg/kg PO
# [5] = plasma, 30 mg/kg, Day 1, Plasma, 30 mg/kg PO
# [6] = plasma, 30 mg/kg, Day 7, Plasma, 30 mg/kg PO
compound,measurement,setting,value
"Cc1cccnc1[C@@H]1CCC[C@H](c2nc3cccc(N4CCN(C)CC4)c3[nH]2)N1C (racemic) [I-3, 2-((2R,6S)-1-methyl-6-(3-methylpyridin-2-yl)piperidin-2-yl)-7-(4-methylpiperazin-1-yl)-1H-benzo[d]imidazole]",AUCCSF/AUCbrain,"Day 1, 30 mg/kg PO",3.55%
same,AUCCSF/AUCbrain,"Day 7, 30 mg/kg PO",0.325%
same,Cmax,[1],11.3 ng/mL
same,Tmax,[1],8 h
same,AUC(0-t),"CSF, 30 mg/kg, Day 1, CSF, 30 mg/kg PO, read-out: AUClast",151 ng·h/mL
same,Cmax,[2],6.42 ng/mL
same,Tmax,[2],4 h
same,AUC(0-t),"CSF, 30 mg/kg, Day 7, CSF, 30 mg/kg PO, read-out: AUClast",35.5 ng·h/mL
same,AUC(0-inf),[3],8880 ng·h/mL
same,Cmax,[3],219 ng/mL
same,Tmax,[3],4 h
same,AUC(0-t),"brain, 30 mg/kg, Day 1, Brain, 30 mg/kg PO, read-out: AUClast",4260 ng·h/mL
same,half-life,"brain, 30 mg/kg, Day 1, Brain, 30 mg/kg PO, read-out: Terminal t1/2 (converted)",25 h
same,AUC(0-inf),[4],29500 ng·h/mL
same,Cmax,[4],615 ng/mL
same,Tmax,[4],1 h
same,AUC(0-t),"brain, 30 mg/kg, Day 7, Brain, 30 mg/kg PO, read-out: AUClast",10900 ng·h/mL
same,half-life,"brain, 30 mg/kg, Day 7, Brain, 30 mg/kg PO, read-out: Terminal t1/2 (converted)",34.4 h
same,AUC(0-t),"brain, 30 mg/kg, brain, D 1-30 mg/kg, PO, read-out: AUClast (b)",4260 ng·h/mL
same,AUC(0-t),"brain, 30 mg/kg/day, brain, D 7-30 mg/kg, PO, read-out: AUClast (b)",10900 ng·h/mL
same,half-life,"plasma, 30 mg/kg, 7 days Mouse TOX, D 1-30 mg/kg, PO, read-out: t½ (converted)",2.62 h
same,AUC(0-inf),[5],2370 ng·h/mL
same,Cmax,[5],968 ng/mL
same,Tmax,[5],0.5 h
same,AUC(0-t),"plasma, 30 mg/kg, Day 1, Plasma, 30 mg/kg PO, read-out: AUClast",2370 ng·h/mL
same,half-life,"plasma, 30 mg/kg, Day 1, Plasma, 30 mg/kg PO, read-out: Terminal t1/2 (converted)",2.62 h
same,AUC(0-inf),[6],3570 ng·h/mL
same,Cmax,[6],1210 ng/mL
same,Tmax,[6],0.5 h
same,AUC(0-t),"plasma, 30 mg/kg, Day 7, Plasma, 30 mg/kg PO, read-out: AUClast",3560 ng·h/mL
same,half-life,"plasma, 30 mg/kg, Day 7, Plasma, 30 mg/kg PO, read-out: Terminal t1/2 (converted)",3.13 h
same,AUC(0-t),"plasma, 30 mg/kg, plasma, D 1-30 mg/kg, PO, read-out: AUClast (p)",2370 ng·h/mL
same,half-life,"plasma, 30 mg/kg/day, 7 days Mouse TOX, D 7-30 mg/kg, PO, read-out: t½ (converted)",3.13 h
same,AUC(0-t),"plasma, 30 mg/kg/day, plasma, D 7-30 mg/kg, PO, read-out: AUClast (p)",3560 ng·h/mL
